Experimental data taken from US10179782B2, “Substituted sulfonamide compounds” (Genentech, Inc., priority 2016, dated 2019).

Target: T1, human TRPA1 (Homo sapiens, UniProt O75762)
T1 construct: expressed in transfected cells; host or cells: CHO cells
Experiment: TRPA1 FLIPR Tetra calcium influx assay in CHO cells (block of cinnamaldehyde-induced calcium influx)
Format: cell-based
Settings: Table 1; CHO cells expressing TRPA1; agonist cinnamaldehyde 75 uM; with vs without substituent at R2/R3; read-out: hTRPA1 CHO Ca2+ AUC EVO (IC50)
Summary of the method: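 IC50s were derived from a Hill fit with n fixed at 1.5, using inhibition of FLIPR Tetra calcium signals in dye-loaded TRPA1-CHO cells. Cells sat with compound 20 min at room temperature in HBSS with 20 mM HEPES (pH 7.4) and 0.02% BSA, then were challenged with cinnamaldehyde near EC80: 75 µM human, 45 µM rat.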

T1 sequence (O75762 whole entry): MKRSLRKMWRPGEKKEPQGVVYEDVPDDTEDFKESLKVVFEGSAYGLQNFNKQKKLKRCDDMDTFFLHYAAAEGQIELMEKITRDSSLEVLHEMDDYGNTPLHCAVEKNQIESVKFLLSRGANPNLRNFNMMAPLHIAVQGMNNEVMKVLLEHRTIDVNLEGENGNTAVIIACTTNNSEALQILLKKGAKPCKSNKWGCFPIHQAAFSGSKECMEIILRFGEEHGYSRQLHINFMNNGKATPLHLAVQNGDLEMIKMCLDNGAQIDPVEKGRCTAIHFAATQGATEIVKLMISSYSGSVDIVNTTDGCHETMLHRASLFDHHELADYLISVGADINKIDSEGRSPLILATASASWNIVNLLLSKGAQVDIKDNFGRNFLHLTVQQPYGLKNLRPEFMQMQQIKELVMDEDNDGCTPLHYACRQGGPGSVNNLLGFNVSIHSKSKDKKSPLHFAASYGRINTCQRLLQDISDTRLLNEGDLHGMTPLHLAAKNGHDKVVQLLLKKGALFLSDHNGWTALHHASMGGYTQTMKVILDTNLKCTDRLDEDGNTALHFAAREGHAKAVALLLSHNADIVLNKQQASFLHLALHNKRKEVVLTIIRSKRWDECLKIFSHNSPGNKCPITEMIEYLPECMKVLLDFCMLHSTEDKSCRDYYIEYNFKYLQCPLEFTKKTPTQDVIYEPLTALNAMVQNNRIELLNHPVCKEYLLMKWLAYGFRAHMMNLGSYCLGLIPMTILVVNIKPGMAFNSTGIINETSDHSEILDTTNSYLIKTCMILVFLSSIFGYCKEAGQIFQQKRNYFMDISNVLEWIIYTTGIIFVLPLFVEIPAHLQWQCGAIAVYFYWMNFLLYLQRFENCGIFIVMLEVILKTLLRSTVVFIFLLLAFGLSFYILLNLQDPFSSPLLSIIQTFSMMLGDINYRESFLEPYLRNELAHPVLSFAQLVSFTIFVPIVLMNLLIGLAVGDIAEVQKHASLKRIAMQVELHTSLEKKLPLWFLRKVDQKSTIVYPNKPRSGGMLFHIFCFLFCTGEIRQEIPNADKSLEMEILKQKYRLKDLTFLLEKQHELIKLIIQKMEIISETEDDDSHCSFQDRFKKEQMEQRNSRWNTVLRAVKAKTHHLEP

IC50 [nM] | Structure (SMILES)
2.01 | C[C@H]1[C@H](F)C[C@@H](C(=O)NCc2cc(-c3cnc(C(F)(F)F)nc3)ncc2F)N1S(=O)(=O)c1ccc(F)cc1 [drawing 600, (2S,4R,5S)-4-fluoro-1-(4-fluorophenyl)sulfonyl-N-[[5-fluoro-2-[2-(trifluoromethyl)pyrimidin-5-yl]-4-pyridyl]methyl]-5-methyl-pyrrolidine-2-carboxamide]
21.9 | C[C@H]1[C@H](F)C[C@@H](C(=O)NCc2cc(-c3cnc(C(F)(F)F)nc3)ncn2)N1S(=O)(=O)c1ccc(F)cc1 [drawing 602, (2S,4R,5S)-4-fluoro-1-(4-fluorophenyl)sulfonyl-5-methyl-N-[[6-[2-(trifluoromethyl)pyrimidin-5-yl]pyrimidin-4-yl]methyl]pyrrolidine-2-carboxamide]
4.31 | C[C@H]1[C@H](F)C[C@@H](C(=O)NCc2cc(-c3cnc(C(F)(F)F)nc3)c(Cl)cn2)N1S(=O)(=O)c1ccc(F)cc1 [drawing 604, (2S,4R,5S)-N-[[5-chloro-4-[2-(trifluoromethyl)pyrimidin-5-yl]-2-pyridyl]methyl]-4-fluoro-1-(4-fluorophenyl)sulfonyl-5-methyl-pyrrolidine-2-carboxamide]
19.5 | C[C@H]1[C@H](F)C[C@@H](C(=O)NCc2ccnc(-c3cnc(C(F)(F)F)nc3)c2)N1S(=O)(=O)c1ccc(F)cc1 [drawing 606, (2S,4R,5S)-4-fluoro-1-(4-fluorophenyl)sulfonyl-5-methyl-N-[[2-[2-(trifluoromethyl)pyrimidin-5-yl]-4-pyridyl]methyl]pyrrolidine-2-carboxamide]

Same assay, conditions: Table 2; CHO cells expressing TRPA1; agonist cinnamaldehyde 75 uM; 20 min compound incubation; Hill coefficient fixed to 1.5; read-out: hTRPA1 CHO Ca2+ AUC EVO (IC50)

IC50 [nM] | Structure (SMILES)
35 | C[C@H]1[C@H](F)C[C@@H](C(=O)NCc2cc(-c3cnc(C(F)(F)F)nc3)c(OC(F)F)cn2)N1S(=O)(=O)c1ccc(F)cc1 [Example 146, (2S,4R,5S)-N-[[5-(difluoromethoxy)-4-[2-(trifluoromethyl)pyrimidin-5-yl]-2-pyridyl]methyl]-4-fluoro-1-(4-fluorophenyl)sulfonyl-5-methyl-pyrrolidine-2-carboxamide]
24.5 | C[C@H]1[C@H](F)C[C@@H](C(=O)NCc2cn([C@H]3CC[C@H](C(F)(F)F)CC3)nc2C(F)(F)F)N1S(=O)(=O)c1ccc(F)cc1 [Example 147, (2S,4R,5S)-4-fluoro-1-(4-fluorophenyl)sulfonyl-5-methyl-N-[[3-(trifluoromethyl)-1-[4-(trifluoromethyl)cyclohexyl]pyrazol-4-yl]methyl]pyrrolidine-2-carboxamide]
7.64 | C[C@H]1[C@H](F)C[C@@H](C(=O)NCc2cn(-c3cnc(C(F)(F)F)s3)nc2Cl)N1S(=O)(=O)c1ccc(F)cc1 [Example 148, (4R,5S)-N-[[3-chloro-1-[2-(trifluoromethyl)thiazol-5-yl]pyrazol-4-yl]methyl]-4-fluoro-1-(4-fluorophenyl)sulfonyl-5-methyl-pyrrolidine-2-carboxamide]
0.756 | O=C(NCc1cc(-c2cnc(C(F)(F)F)nc2)ncc1C(F)(F)F)[C@@H]1[C@H]2C[C@H]2CN1S(=O)(=O)c1ccc(F)cc1 [Example 149, (1S,2S,5R)-3-(4-fluorophenyl)sulfonyl-N-[[5-(trifluoromethyl)-2-[2-(trifluoromethyl)pyrimidin-5-yl]-4-pyridyl]methyl]-3-azabicyclo[3.1.0]hexane-2-carboxamide]
5.72 | O=C(NCc1cc(-c2cnc(C(F)(F)F)nc2)ncc1C(F)F)[C@@H]1[C@H]2C[C@H]2CN1S(=O)(=O)c1ccc(F)cc1 [Example 150, (1R,4S,5S)-N-[[5-(difluoromethyl)-2-[2-(trifluoromethyl)pyrimidin-5-yl]-4-pyridyl]methyl]-3-(4-fluorophenyl)sulfonyl-3-azabicyclo[3.1.0]hexane-4-carboxamide]
1 | O=C(NCc1cc(-c2cnc(C(F)(F)F)nc2)nc(C2CC2)n1)[C@@H]1[C@H]2C[C@H]2CN1S(=O)(=O)c1ccc(F)cc1 [Example 151, (1S,2S,5R)-N-[[2-cyclopropyl-6-[2-(trifluoromethyl)pyrimidin-5-yl]pyrimidin-4-yl]-methyl]-3-(4-fluorophenyl)sulfonyl-3-azabicyclo[3.1.0]hexane-2-carboxamide]
3.03 | C[C@H]1[C@H](F)C[C@@H](C(=O)NCc2cc(-c3cnc(C(F)(F)F)nc3)cnc2C(F)(F)F)N1S(=O)(=O)c1ccc(F)cc1 [Example 152, (2S,4R,5S)-4-fluoro-1-(4-fluorophenyl)sulfonyl-5-methyl-N-[[2-(trifluoromethyl)-5-[2-(trifluoromethyl)pyrimidin-5-yl]-3-pyridyl]methyl]pyrrolidine-2-carboxamide]
0.229 | C[C@H]1[C@H](F)C[C@@H](C(=O)NCc2cc(-c3cnc(C(F)(F)F)nc3)ncc2C(F)(F)F)N1S(=O)(=O)c1cc2cc(F)ccc2o1 [Example 153, (2S,4R,5S)-4-fluoro-1-(5-fluorobenzofuran-2-yl)sulfonyl-5-methyl-N-[[5-(trifluoromethyl)-2-[2-(trifluoromethyl)pyrimidin-5-yl]-4-pyridyl]methyl]pyrrolidine-2-carboxamide]
0.89 | C[C@H]1[C@H](F)C[C@@H](C(=O)NCc2cc(-c3cnc(C(F)(F)F)nc3)ncc2F)N1S(=O)(=O)c1cc2cc(F)ccc2o1 [Example 154, (2S,4R,5S)-4-fluoro-1-(5-fluorobenzofuran-2-yl)sulfonyl-N-[[5-fluoro-2-[2-(trifluoromethyl)pyrimidin-5-yl]-4-pyridyl]methyl]-5-methyl-pyrrolidine-2-carboxamide]
4.24 | C[C@@]1(F)C[C@@H](C(=O)NCc2cc(-c3cnc(C(F)(F)F)nc3)ncc2C(F)(F)F)N(S(=O)(=O)c2ccc(F)cc2)C1 [Example 155, (2S,4R)-4-fluoro-1-(4-fluorophenyl)sulfonyl-4-methyl-N-[[5-(trifluoromethyl)-2-[2-(trifluoromethyl)pyrimidin-5-yl]-4-pyridyl]methyl]pyrrolidine-2-carboxamide]
1.93 | C[C@@]1(F)C[C@@H](C(=O)NCc2cc(-c3cnc(C(F)(F)F)nc3)ncc2C(F)(F)F)N(S(=O)(=O)c2cc3cc(F)ccc3o2)C1 [Example 156, (2S,4R)-4-fluoro-1-(5-fluorobenzofuran-2-yl)sulfonyl-4-methyl-N-[[5-(trifluoromethyl)-2-[2-(trifluoromethyl)pyrimidin-5-yl]-4-pyridyl]methyl]pyrrolidine-2-carboxamide]
1200 | C[C@H]1[C@H](F)C[C@@H](C(=O)N(COP(=O)(O)O)Cc2cc(-c3cnc(C(F)(F)F)nc3)ncc2F)N1S(=O)(=O)c1ccc(F)cc1 [Example 157, Sodium ((2S,4R,5S)-4-fluoro-N-((5-fluoro-2-(2-(trifluoromethyl)pyrimidin-5-yl)pyridin-4-yl)methyl)-1-((4-fluorophenyl)sulfonyl)-5-methylpyrrolidine-2-carboxamido)methyl phosphate]
2.31 | C[C@H]1[C@H](F)C[C@@H](C(=O)NCc2cc(-c3cnc(C(F)(F)F)nc3)ncc2C(F)(F)F)N1S(=O)(=O)c1cncc(F)c1 [Example 159, (2S,4R,5S)-4-fluoro-1-[(5-fluoro-3-pyridyl)sulfonyl]-5-methyl-N-[[5-(trifluoromethyl)-2-[2-(trifluoromethyl)pyrimidin-5-yl]-4-pyridyl]methyl]pyrrolidine-2-carboxamide]
7.27 | C[C@H]1[C@H](F)C[C@@H](C(=O)NCc2cc(-c3cnc(C(F)(F)F)nc3)ncc2C(F)(F)F)N1S(=O)(=O)c1ccc(C#N)nc1 [Example 160, (2S,4R,5S)-1-[(6-cyano-3-pyridyl)sulfonyl]-4-fluoro-5-methyl-N-[[5-(trifluoromethyl)-2-[2-(trifluoromethyl)pyrimidin-5-yl]-4-pyridyl]methyl]pyrrolidine-2-carboxamide]
1.96 | C[C@H]1[C@H](F)C[C@@H](C(=O)NCc2cc(-c3cnc(C(F)(F)F)nc3)ncc2C(F)(F)F)N1S(=O)(=O)c1ccc(Cl)nc1 [Example 161, (2S,4R,5S)-1-[(6-chloro-3-pyridyl)sulfonyl]-4-fluoro-5-methyl-N-[[5-(trifluoromethyl)-2-[2-(trifluoromethyl)pyrimidin-5-yl]-4-pyridyl]methyl]pyrrolidine-2-carboxamide]
2.34 | C[C@H]1[C@H](F)C[C@@H](C(=O)NCc2cc(-c3cnc(C(F)(F)F)nc3)cnc2C(F)F)N1S(=O)(=O)c1ccc(F)cc1 [Example 162, (2S,4R,5S)-N-[[2-(difluoromethyl)-5-[2-(trifluoromethyl)pyrimidin-5-yl]-3-pyridyl]methyl]-4-fluoro-1-(4-fluorophenyl)sulfonyl-5-methyl-pyrrolidine-2-carboxamide]
